Measured values: patent publication US10022376B2 (Pfizer Inc., priority 2014, dated 2018)
Where a name gives a salt, the structure may show the parent alone.

How the values were obtained:
JAK2 = JAK2 (Homo sapiens (Human), UniProt O60674); assay: JAK Caliper Enzyme Assay at 1 mM ATP (JAK2); assay type: biochemical; conditions: Caliper assay at 1 mM ATP
JAK1 = JAK1 (Homo sapiens (Human), UniProt P23458); assay: JAK Caliper Enzyme Assay at 1 mM ATP (JAK1); assay type: biochemical; conditions: Caliper assay at 1 mM ATP
[1] = system: rhIFNγ stimulated STAT-3 phosphorylation in the A549 human epithelial cell line; assay: A549 Cell Assay: Inhibition of pSTAT3; assay type: cell-based; conditions: Homo sapiens; A549 cells
Method in brief: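 Percent inhibition of STAT3 Tyr705 phosphorylation was measured by MSD immunoassay of cell lysates. A549 cells were given compound for 1 h at 37° C (final 0.3 nM to 10 μM, 0.1% DMSO, in 0.2% BSA DMEM), followed by 30 min of rhIFNγ stimulation at 20 ng/mL final. Unstimulated DMSO wells served as background.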

JAK3 = JAK3 (Homo sapiens (Human), UniProt P52333); assay: JAK Caliper Enzyme Assay at 1 mM ATP (JAK3); assay type: biochemical; conditions: Caliper assay at 1 mM ATP
TYK2 = TYK2 (Homo sapiens (Human), UniProt P29597); assay: JAK Caliper Enzyme Assay at 1 mM ATP (TYK2); assay type: biochemical; conditions: Caliper assay at 1 mM ATP
[2] = system: rhIL-2 stimulated STAT5 phosphorylation in isolated human T cells; assay: Human T Cell Assay: Inhibition of pSTAT5; assay type: cell-based
Method: Human T Cell Assay: Inhibition of pSTAT5
An assay measuring the efficacy of JAK inhibitors on the functional response of recombinant human interleukin-2 (rhIL-2) stimulated STAT5 phosphorylation in isolated human T cells.
Human whole blood from individual donors was collected from the phlebotomy unit on-site. Peripheral venous blood (30-60 mL) from healthy volunteers of either sex was used as the source of T cells. T cell isolation from venous whole blood is routinely performed in a class II microbiological safety cabinet. Each sample was collected into between 3 and 6 10 mL Sodium Heparin Vacutainer tubes (BD #367874). The blood was poured into sterile 50 mL conicals (Corning #430828) and incubated with the T cell Rosette Sep Cocktail (Stemcell Technologies #15061) at 50 μL/mL antibody/blood ratio for 20 min. with shaking at room temperature. The blood/antibody mixture was then diluted 1:2 with PBS (Pfizer media prep)/2% FBS (Sigma #F4135) and 30 mL of the mixture was layered onto 15 mL Ficoll-Hypaque (GE Healthcare #17-1440-03) in 50 mL conical tubes. The tubes were then centrifuged at 1200×g for 20 min. at room temperature with no brake. Following centrifugation the T cells formed a buffy coat between the Ficoll-Hypaque and plasma layers. The plasma above the buffy coats was removed to within 5 mm of the buffy coat using a sterile Pasteur pipette. The buffy coats were then collected into fresh sterile 50 mL conical tubes containing 25 mL PBS/2% FBS (2 buffy coats per 50 mL conical). PBS/2% FBS was added to the buffy coat cells such that the final volume in the tube was 50 mL. The tubes were then centrifuged at 200×g for 15 min. at room temperature. The supernatant was discarded and the pellet re-suspended in 10-20 mL of DMEM (Pfizer media prep) Assay media/0.2% BSA (Miltenyi #130-091-376). A differential cell count was performed using a haemacytometer and cells were diluted to 1.1×10^6 T cells/ml in DMEM/0.2% BSA media. Compounds (10 mM-0.3 μM) were diluted with Hanks Balanced Salt Solution (HBSS) (Sigma #H6648) at 1:100 dilution. Immediately following cell isolation and compound dilution, 90 μl/well of T cells (˜1×10^6/ml) in assay medium (DMEM+0.2% BSA) was added to the VWR Deep well V bottom plate (#3906-520-300). 10 μl/well of compound (final concentration range of 10 μM-0.3 nM with 0.1% DMSO) or 0.1% DMSO in HBSS as controls was added to the appropriate wells. Plates were incubated for 1 hour at 37° C., 5% CO2 incubator. 10 μl of 3.3 μg/mL rhIL-2 (R&D Systems #202-IL) was added to the cells (300 ng/ml final assay concentration). Wells containing T cells, medium with 0.1% DMSO and no rhIL-2 were used as background controls. Plates were incubated for 15 min at 37° C. After rhIL-2 stimulation, 800 μL of cold PBS/0.1% BSA was added and the plates were centrifuged at 1400 rpm for 5 min at 4° C. Supernatant was aspirated and 100 μL of ice-cold MSD lysis buffer containing protease and phosphatase inhibitors from Phospho-STAT5a/b Tyr694 assay kit (Meso-Scale Discovery #K150IGD) was added to the cell pellet. Plates were shaken for 30 min. at 4° C. and then frozen overnight. The following day, cell lysates were assayed using the MSD ELISA kit protocol for detection of pSTAT5.
Data were collected and transformed into percent inhibition and calculated using the following formula: […]

JAK3, sequence (P52333 whole entry): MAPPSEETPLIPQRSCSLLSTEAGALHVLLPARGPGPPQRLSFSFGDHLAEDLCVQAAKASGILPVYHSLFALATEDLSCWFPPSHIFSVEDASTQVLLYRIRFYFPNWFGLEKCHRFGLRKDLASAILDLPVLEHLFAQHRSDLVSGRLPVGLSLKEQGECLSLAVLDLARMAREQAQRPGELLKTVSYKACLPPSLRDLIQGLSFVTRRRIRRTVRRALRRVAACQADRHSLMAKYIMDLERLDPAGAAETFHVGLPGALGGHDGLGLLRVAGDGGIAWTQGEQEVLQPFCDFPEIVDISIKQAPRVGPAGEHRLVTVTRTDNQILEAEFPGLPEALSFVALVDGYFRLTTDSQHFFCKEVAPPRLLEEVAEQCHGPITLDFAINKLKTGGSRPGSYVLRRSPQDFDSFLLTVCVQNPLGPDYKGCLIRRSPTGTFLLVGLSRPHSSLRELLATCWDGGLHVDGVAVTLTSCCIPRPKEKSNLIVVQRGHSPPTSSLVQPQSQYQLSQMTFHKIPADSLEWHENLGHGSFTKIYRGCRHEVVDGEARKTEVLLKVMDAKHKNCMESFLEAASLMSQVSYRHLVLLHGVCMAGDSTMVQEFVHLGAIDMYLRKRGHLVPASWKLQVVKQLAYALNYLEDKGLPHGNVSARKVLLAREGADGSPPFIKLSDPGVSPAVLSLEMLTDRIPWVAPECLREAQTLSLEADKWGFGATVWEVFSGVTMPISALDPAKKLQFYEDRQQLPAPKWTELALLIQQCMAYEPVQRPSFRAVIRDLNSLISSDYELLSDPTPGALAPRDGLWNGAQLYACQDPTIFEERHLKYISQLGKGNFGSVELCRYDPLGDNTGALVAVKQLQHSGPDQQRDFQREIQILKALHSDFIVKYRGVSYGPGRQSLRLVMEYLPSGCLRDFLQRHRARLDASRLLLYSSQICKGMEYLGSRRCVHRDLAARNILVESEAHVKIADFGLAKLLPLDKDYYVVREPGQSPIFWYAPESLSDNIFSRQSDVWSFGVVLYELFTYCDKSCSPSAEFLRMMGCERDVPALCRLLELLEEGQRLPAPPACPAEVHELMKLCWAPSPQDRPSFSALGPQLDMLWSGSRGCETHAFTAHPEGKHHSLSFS
TYK2, sequence (P29597 whole entry): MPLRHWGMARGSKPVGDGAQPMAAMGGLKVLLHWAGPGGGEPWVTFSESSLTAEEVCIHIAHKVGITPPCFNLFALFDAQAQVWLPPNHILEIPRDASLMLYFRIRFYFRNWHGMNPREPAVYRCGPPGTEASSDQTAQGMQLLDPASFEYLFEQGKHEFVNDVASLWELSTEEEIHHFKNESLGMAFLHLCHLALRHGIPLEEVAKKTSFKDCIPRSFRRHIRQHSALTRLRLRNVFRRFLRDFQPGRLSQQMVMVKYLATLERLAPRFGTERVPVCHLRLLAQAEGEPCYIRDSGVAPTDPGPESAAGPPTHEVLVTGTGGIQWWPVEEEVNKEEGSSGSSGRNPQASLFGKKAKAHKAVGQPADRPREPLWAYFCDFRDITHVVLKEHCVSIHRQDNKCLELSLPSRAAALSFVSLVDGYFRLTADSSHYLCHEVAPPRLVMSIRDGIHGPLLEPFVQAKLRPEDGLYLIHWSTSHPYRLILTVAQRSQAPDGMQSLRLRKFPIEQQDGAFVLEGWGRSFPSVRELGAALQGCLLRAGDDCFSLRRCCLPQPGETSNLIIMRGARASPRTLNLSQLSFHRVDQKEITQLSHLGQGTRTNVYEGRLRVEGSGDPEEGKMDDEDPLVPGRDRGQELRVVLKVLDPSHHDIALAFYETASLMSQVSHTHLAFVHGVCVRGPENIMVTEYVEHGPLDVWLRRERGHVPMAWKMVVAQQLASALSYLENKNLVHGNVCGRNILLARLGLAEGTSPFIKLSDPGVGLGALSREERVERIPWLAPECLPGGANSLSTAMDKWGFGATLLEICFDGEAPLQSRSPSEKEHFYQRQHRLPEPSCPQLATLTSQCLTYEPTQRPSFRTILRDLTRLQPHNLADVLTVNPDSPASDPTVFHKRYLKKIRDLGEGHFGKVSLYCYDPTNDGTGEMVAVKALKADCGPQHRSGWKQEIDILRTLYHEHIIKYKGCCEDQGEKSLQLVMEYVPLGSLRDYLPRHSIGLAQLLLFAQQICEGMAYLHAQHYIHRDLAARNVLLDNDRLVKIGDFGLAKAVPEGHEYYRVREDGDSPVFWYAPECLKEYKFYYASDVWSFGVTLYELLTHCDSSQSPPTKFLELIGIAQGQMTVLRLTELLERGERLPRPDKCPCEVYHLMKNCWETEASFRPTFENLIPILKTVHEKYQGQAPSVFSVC
JAK1, sequence (P23458 whole entry): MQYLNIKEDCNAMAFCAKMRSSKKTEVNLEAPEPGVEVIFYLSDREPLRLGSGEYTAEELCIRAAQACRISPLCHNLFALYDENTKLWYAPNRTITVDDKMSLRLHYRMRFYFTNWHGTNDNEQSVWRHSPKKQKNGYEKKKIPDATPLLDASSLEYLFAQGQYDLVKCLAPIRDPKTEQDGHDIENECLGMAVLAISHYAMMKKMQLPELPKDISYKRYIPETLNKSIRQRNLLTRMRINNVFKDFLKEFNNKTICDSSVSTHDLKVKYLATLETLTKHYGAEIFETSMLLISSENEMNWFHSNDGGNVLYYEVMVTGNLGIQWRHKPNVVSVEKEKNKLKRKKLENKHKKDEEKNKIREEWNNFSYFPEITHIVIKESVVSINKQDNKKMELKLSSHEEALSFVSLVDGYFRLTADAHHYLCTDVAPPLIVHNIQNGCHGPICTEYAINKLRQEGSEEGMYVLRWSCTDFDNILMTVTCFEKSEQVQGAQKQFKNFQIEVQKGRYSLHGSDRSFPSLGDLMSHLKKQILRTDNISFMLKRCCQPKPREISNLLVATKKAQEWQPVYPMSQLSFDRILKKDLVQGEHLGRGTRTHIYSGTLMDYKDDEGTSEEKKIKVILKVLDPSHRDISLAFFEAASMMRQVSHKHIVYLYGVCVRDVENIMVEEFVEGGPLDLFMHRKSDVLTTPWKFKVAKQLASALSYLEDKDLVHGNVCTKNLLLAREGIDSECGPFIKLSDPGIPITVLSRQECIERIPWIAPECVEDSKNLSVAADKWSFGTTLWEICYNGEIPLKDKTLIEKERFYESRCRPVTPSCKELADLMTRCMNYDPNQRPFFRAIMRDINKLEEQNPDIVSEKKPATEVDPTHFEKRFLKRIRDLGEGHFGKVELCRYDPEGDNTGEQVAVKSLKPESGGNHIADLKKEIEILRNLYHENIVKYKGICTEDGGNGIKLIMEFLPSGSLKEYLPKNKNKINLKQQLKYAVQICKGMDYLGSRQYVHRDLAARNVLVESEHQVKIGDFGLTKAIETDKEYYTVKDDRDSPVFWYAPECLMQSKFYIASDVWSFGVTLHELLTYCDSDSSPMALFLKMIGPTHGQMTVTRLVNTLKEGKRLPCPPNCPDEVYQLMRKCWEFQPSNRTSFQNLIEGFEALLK
JAK2, sequence (O60674 whole entry): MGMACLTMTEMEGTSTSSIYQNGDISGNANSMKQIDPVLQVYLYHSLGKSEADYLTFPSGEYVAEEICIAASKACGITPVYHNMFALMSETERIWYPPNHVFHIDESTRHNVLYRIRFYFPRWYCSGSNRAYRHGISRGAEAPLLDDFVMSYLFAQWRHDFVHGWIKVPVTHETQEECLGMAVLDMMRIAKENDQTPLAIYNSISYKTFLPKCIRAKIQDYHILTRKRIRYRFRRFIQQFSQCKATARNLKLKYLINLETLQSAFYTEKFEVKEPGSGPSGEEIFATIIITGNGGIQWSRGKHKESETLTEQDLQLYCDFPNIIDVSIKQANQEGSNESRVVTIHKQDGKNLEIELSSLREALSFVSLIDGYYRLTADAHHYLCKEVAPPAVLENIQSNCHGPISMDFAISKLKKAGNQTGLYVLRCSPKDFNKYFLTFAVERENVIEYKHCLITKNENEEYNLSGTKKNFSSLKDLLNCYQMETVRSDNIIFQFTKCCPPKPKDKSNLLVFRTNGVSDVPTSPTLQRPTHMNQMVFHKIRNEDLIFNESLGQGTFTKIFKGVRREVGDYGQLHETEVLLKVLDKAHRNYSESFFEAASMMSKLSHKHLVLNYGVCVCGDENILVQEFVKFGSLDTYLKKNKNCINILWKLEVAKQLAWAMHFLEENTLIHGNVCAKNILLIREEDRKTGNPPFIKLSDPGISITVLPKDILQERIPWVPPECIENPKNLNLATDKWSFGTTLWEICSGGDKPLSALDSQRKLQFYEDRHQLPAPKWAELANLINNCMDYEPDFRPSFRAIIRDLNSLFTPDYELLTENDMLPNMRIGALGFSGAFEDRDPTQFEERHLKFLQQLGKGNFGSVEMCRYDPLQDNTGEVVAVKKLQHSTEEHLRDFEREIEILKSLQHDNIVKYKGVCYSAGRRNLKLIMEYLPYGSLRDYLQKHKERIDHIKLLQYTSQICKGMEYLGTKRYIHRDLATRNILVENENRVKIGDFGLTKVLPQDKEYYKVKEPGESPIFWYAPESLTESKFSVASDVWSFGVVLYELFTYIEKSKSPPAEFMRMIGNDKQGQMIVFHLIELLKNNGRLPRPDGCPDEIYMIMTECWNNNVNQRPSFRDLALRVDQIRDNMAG

Row | Structure (SMILES) | IC50 (JAK2) | IC50 (JAK1) | IC50 [1] | IC50 (JAK3) | IC50 (TYK2) | IC50 [2]
1 | CCc1cc(O)c(F)cc1-c1cc2[nH]nc(C(=O)NC)c2c(NCc2ccccc2N(CC)S(C)(=O)=O)n1 [Example 9, 6-(2-ethyl-5-fluoro-4-hydroxyphenyl)-4-({2-[ethyl(methylsulfonyl)amino]benzyl}amino)-N-methyl-1H-pyrazolo[4,3-c]pyridine-3-carboxamide] | 10.8 nM | 1.7 nM | 14.9 nM | 60 nM | 7.2 nM | –
2 | CCc1cc(O)c(F)cc1-c1cc2[nH]nc(C(=O)NC)c2c(NCC2CCCC2)n1 [Example 10, 4-[(cyclopentylmethyl)amino]-6-(2-ethyl-5-fluoro-4-hydroxyphenyl)-N-methyl-1H-pyrazolo[4,3-c]pyridine-3-carboxamide] | 19 nM | 4.7 nM | 26 nM | 93.1 nM | 17.9 nM | –
3 | CCN(c1ccccc1CNc1nc(-c2cc(F)c(O)cc2CC(F)(F)F)cc2[nH]nc(C(=O)NC)c12)S(C)(=O)=O [Example 12, 4-({2-[ethyl(methylsulfonyl)amino]benzyl}amino)-6-[5-fluoro-4-hydroxy-2-(2,2,2-trifluoroethyl)phenyl]-N-methyl-1H-pyrazolo[4,3-c]pyridine-3-carboxamide] | 31.5 nM | 6.4 nM | 44.9 nM | 121 nM | 24.8 nM | –
4 | CCS(=O)(=O)N(C)c1ccccc1CNc1nc(-c2cc(F)c(O)cc2CC(F)(F)F)cc2[nH]nc(C(=O)NC)c12 [Example 13, 4-({2-[(ethylsulfonyl)(methyl)amino]benzyl}amino)-6-[5-fluoro-4-hydroxy-2-(2,2,2-trifluoroethyl)phenyl]-N-methyl-1H-pyrazolo[4,3-c]pyridine-3-carboxamide] | 26.6 nM | 5.3 nM | 96.7 nM | 118 nM | 35.7 nM | –
5 | CNC(=O)c1n[nH]c2cc(-c3cc(F)c(O)cc3CC(F)(F)F)nc(NCc3cc(F)ccc3N(C)S(C)(=O)=O)c12 [Example 14, 6-[5-fluoro-4-hydroxy-2-(2,2,2-trifluoroethyl)phenyl]-4-({5-fluoro-2-[methyl(methylsulfonyl)amino]benzyl}amino)-N-methyl-1H-pyrazolo[4,3-c]pyridine-3-carboxamide] | 20.5 nM | 4.2 nM | 20.7 nM | 99.7 nM | 43.2 nM | –
6 | CCc1cc(O)c(F)cc1-c1cc2[nH]nc(C(=O)NC)c2c(NCc2cc(C)ccc2N(C)S(C)(=O)=O)n1 [Example 21, 6-(2-ethyl-5-fluoro-4-hydroxyphenyl)-N-methyl-4-({5-methyl-2-[methyl(methylsulfonyl)amino]benzyl}amino)-1H-pyrazolo[4,3-c]pyridine-3-carboxamide] | 13.2 nM | 2.7 nM | 35.6 nM | 67.9 nM | 11.4 nM | –
7 | CCc1cc(O)c(F)cc1-c1cc2[nH]nc(C(=O)NC)c2c(NCc2ccccc2N(C)S(=O)(=O)c2ccccc2)n1 [Example 22, 6-(2-ethyl-5-fluoro-4-hydroxyphenyl)-N-methyl-4-({2-[methyl(phenylsulfonyl)amino]benzyl}amino)-1H-pyrazolo[4,3-c]pyridine-3-carboxamide] | 81.3 nM | 17.5 nM | 52.8 nM | 359 nM | 59.1 nM | –
8 | CCc1cc(O)c(F)cc1-c1cc2[nH]nc(C(=O)NC)c2c(NCCc2ccc(NS(=O)(=O)c3ccccc3)cc2)n1 [Example 23, 6-(2-ethyl-5-fluoro-4-hydroxyphenyl)-N-methyl-4-[(2-{4-[(phenylsulfonyl)amino]phenyl}ethyl)amino]-1H-pyrazolo[4,3-c]pyridine-3-carboxamide] | 25.7 nM | 5.8 nM | 51.4 nM | 111 nM | 83.2 nM | –
9 | CNC(=O)c1n[nH]c2cc(-c3cc(F)c(O)cc3CC(F)(F)F)nc(NCc3ccccc3N(CCO)S(C)(=O)=O)c12 [Example 24, 6-[5-fluoro-4-hydroxy-2-(2,2,2-trifluoroethyl)phenyl]-4-({2-[(2-hydroxyethyl)(methylsulfonyl)amino]benzyl}amino)-N-methyl-1H-pyrazolo[4,3-c]pyridine-3-carboxamide] | 16.5 nM | 2.9 nM | 226 nM | 69.6 nM | 29.9 nM | –
10 | CN(c1ccccc1CNc1nc(-c2cc(F)c(O)cc2CC(F)(F)F)cc2[nH]nc(C(N)=O)c12)S(=O)(=O)c1ccccc1 [Example 26, 6-[5-fluoro-4-hydroxy-2-(2,2,2-trifluoroethyl)phenyl]-4-({2-[methyl(phenylsulfonyl)amino]benzyl}amino)-1H-pyrazolo[4,3-c]pyridine-3-carboxamide] | 91.1 nM | 19.9 nM | 124 nM | 293 nM | 218 nM | –
11 | CNC(=O)c1n[nH]c2cc(-c3cc(F)c(O)cc3CC(F)(F)F)nc(NCc3ccc(O)cc3N(C)S(C)(=O)=O)c12 [Example 33, 6-[5-fluoro-4-hydroxy-2-(2,2,2-trifluoroethyl)phenyl]-4-({4-hydroxy-2-[methyl(methylsulfonyl)amino]benzyl}amino)-N-methyl-1H-pyrazolo[4,3-c]pyridine-3-carboxamide] | 25 nM | 5.7 nM | 490 nM | 75.2 nM | 282 nM | –
12 | CNC(=O)c1n[nH]c2cc(-c3cc(F)c(O)cc3CC(F)(F)F)nc(NCc3cc(O)ccc3N(C)S(=O)(=O)c3ccccc3)c12 [Example 35, 6-[5-fluoro-4-hydroxy-2-(2,2,2-trifluoroethyl)phenyl]-4-({5-hydroxy-2-[methyl(phenylsulfonyl)amino]benzyl}amino)-N-methyl-1H-pyrazolo[4,3-c]pyridine-3-carboxamide] | 249 nM | 39.9 nM | 437 nM | 817 nM | 256 nM | –
13 | CNC(=O)c1n[nH]c2cc(-c3cc(F)c(O)cc3CC(F)(F)F)nc(NCc3cc(O)ccc3N(C)S(=O)(=O)c3cccnc3)c12 [Example 54, 6-[5-fluoro-4-hydroxy-2-(2,2,2-trifluoroethyl)phenyl]-4-({5-hydroxy-2-[methyl(pyridin-3-ylsulfonyl)amino]benzyl}amino)-N-methyl-1H-pyrazolo[4,3-c]pyridine-3-carboxamide] | 32.9 nM | 6.1 nM | 135 nM | 123 nM | 25.9 nM | –
14 | Cc1cnc(N(C)S(C)(=O)=O)c(CNc2nc(-c3cc(F)c(O)cc3CC(F)(F)F)cc3[nH]nc(C(N)=O)c23)c1 [Example 86, 6-(5-fluoro-4-hydroxy-2-(2,2,2-trifluoroethyl)phenyl)-4-(((5-methyl-2-(N-methylmethylsulfonamido)pyridin-3-yl)methyl)amino)-1H-pyrazolo[4,3-c]pyridine-3-carboxamide] | 110 nM | 38.4 nM | 425 nM | 81.7 nM | 4820 nM | –
15 | CCc1cc(O)c(F)cc1-c1cc2[nH]ncc2c(NCc2c(F)cccc2N(C)S(C)(=O)=O)n1 [Example 134, N-[2-({[6-(2-ethyl-5-fluoro-4-hydroxyphenyl)-1H-pyrazolo[4,3-c]pyridin-4-yl]amino}methyl)-3-fluorophenyl]-N-methylmethanesulfonamide hydrochloride] | – | – | – | – | – | 259 nM
